Molecular target: T1, Dimer of Gag-Pol polyprotein [489-587] (Human immunodeficiency virus 1, UniProt P12497)
T1 construct: 489-587
Assay: Protease Inhibition Assay
Conditions: pH 6; 37 °C
Protocol: IC50 values were obtained by assaying the enzyme against the synthetic substrate peptide […], which was tritiated at the proline residue, and then was coupled via its N-terminal lysine to an Affi-gel bead mixture. The assay was performed in 96-well microtiter filtration plates. The plates containing HIV protease and radiolabeled substrate beads were incubated with or without inhibitor. […] IC50 determinations were performed in duplicate at each concentration with mean values used for data analysis.

Going from `CC1(C)S[C@H]([C@H](NC(=O)Cc2ccccc2)C(N)=O)N[C@H]1C(=O)NCCNC(=O)[C@@H]1N[C@@H]([C@H](NC(=O)Cc2ccccc2)C(N)=O)SC1(C)C` to `COC(=O)[C@@H](NC(=O)Cc1ccccc1)[C@@H]1N[C@@H](C(=O)NCCNC(=O)[C@@H]2N[C@@H]([C@H](NC(=O)Cc3ccccc3)C(=O)OC)SC2(C)C)C(C)(C)S1` [[2R-[2a(R*),4B ] ]-4,4-[1,2-Ethanediylbis[aminocarbonyl] ]-bis[5,5-dimethyl-a-[ (phenylacetyl)amino]-2-thiazolidineacetic acid, methyl ester]], the IC50 rises from 3 nM to 60 nM (20-fold).

Compound `CCNC(=O)[C@@H](NC(=O)Cc1ccccc1)[C@@H]1N[C@@H](C(=O)NCCNC(=O)[C@@H]2N[C@@H]([C@H](NC(=O)Cc3ccccc3)C(=O)NCC)SC2(C)C)C(C)(C)S1` has an IC50 of 4.8 nM.

— BindingDB's records for doi:10.1021/jm00073a011 (Glaxo Group Research, 1993)
